Source: ChEMBL document CHEMBL1159206, “Synthesis and biological activity of esters in the trans-1,2-dihydroxy-1,2-dihydroacronycine series” (J Nat Prod, 1998)

Key:
L1210 = experiment: Cytotoxicity against mouse L1210 cells after 48 hrs by […] assay; format: functional, cell-based; conditions: L1210, 48 h
P388 [1] = experiment: Antitumor activity against mouse P388 cells implanted in B6D2F1 mouse assessed as median survival time at 6.25 mg/kg, ip relative to control; format: functional; conditions: route intraperitoneal
P388 [2] = experiment: Antitumor activity against mouse P388 cells implanted in B6D2F1 mouse assessed as median survival time at 1.56 mg/kg, ip relative to control; format: functional; conditions: route intraperitoneal
P388 [3] = experiment: Antitumor activity against mouse P388 cells implanted in B6D2F1 mouse assessed as median survival time at 25 mg/kg, ip relative to control; format: functional; conditions: route intraperitoneal
P388 [4] = experiment: Antitumor activity against mouse P388 cells implanted in B6D2F1 mouse assessed as median survival time at 12.5 mg/kg, ip relative to control; format: functional; conditions: route intraperitoneal
P388 [5] = experiment: Antitumor activity against mouse P388 cells implanted in B6D2F1 mouse assessed as median survival time at 0.78 mg/kg, ip relative to control; format: functional; conditions: route intraperitoneal
P388 [6] = experiment: Antitumor activity against mouse P388 cells implanted in B6D2F1 mouse assessed as median survival time at 3.125 mg/kg, ip relative to control; format: functional; conditions: route intraperitoneal
P388 [7] = experiment: Antitumor activity against mouse P388 cells implanted in B6D2F1 mouse assessed as median survival time at 200 mg/kg, ip relative to control; format: functional; conditions: route intraperitoneal

Which IC50 (L1210) does the source give for `COc1cc2c(c3c1c(=O)c1ccccc1n3C)[C@@H](O)[C@H](OC(=O)CCl)C(C)(C)O2` (racemic) here?
Its IC50 is 11 µM.

For `COc1cc2c(c3c1c(=O)c1ccccc1n3C)C(=O)C(O)C(C)(C)O2` (racemic), which IC50 (L1210) is on record?
The IC50 was 75.1 µM.

What does the source list for `COc1cc2c(c3c1c(=O)c1ccccc1n3C)[C@@H](OC(C)=O)[C@H](OC(C)=O)C(C)(C)O2` (racemic)?
T/C (P388 [1]): 160%; T/C (P388 [2]): 136%; T/C (P388 [3]): 77%; IC50 (L1210): 8.7 µM; T/C (P388 [4]): 181%; T/C (P388 [5]): 122%; T/C (P388 [6]): 155%

Which results are given for `COc1cc2c(c3c1c(=O)c1ccccc1n3C)C=CC(C)(C)O2` [ACRONINE]?
IC50 (L1210): 25 µM; T/C (P388 [7]): 125%

`COc1cc2c(c3c1c(=O)c1ccccc1n3C)C(=O)C(O)(CC(C)=O)C(C)(C)O2` (racemic) was tested. Which IC50 (L1210) did it give?
Its IC50 is 22.5 µM.

How did the IC50 (L1210) turn out when `COc1cc2c(c3c1c(=O)c1ccccc1n3C)[C@@H](O)[C@H](OC(C)=O)C(C)(C)O2` (racemic) was run?
The IC50 was 8.8 µM.

For `COc1cc2c(c3c1c(=O)c1ccccc1n3C)[C@@H](OC(C)=O)[C@@H](OC(C)=O)C(C)(C)O2` (relative stereo), which T/C (P388 [3]) is on record?
The T/C was 268%.
